PMC9821237, “Spectroscopic Characterization and Biological Activity of Hesperetin Schiff Bases and Their Cu(II) Complexes” (International Journal of Molecular Sciences, 2023)
Where two headings read alike, the source gives them in different places. Marks after values point to notes of the source that are not given here.

Assays:
HeLa cells [1] = assay: Neutral comet assay, DNA double-strand breaks (DSBs); format: cell-based, human; details: 50 µM
Procedure: The ability of tested compounds (at concentration of 50 µM) to induce DNA double-strand breaks (DSBs) in model HeLa cells was evaluated by the neutral comet assay according to Błasiak et al. (2012). In this version of the comet assay electrophoresis ran in a buffer consisting of 100 mM Tris and 300 mM sodium acetate at pH 9.0 (with glacial acetic acid). Electrophoresis was conducted for 60 min, after a 20 min equilibrium period, at an electric field strength of 0.41 V/cm (50 mA) at 4 °C. The slides were then proceeded as described in the “Single-cell gel electrophoresis assay” section.

HeLa cells [2] = assay: Comet assay with endonuclease III, oxidative DNA damage; format: cell-based, human; details: 50 µM, net damage recognised by Endo III (oxidative DNA damage)
Procedure: Oxidative DNA damage was evaluated with the DNA repair enzyme–endonuclease III (Endo III, New England Biolabs Inc., Germany) in model HeLa cells. The procedure was performed according to [67]. To estimate the ability of the enzyme to recognize oxidized DNA bases, the cells were incubated either with tested compounds (at concentration of 50 µM), or hydrogen peroxide (50 µM), lysed and post-treated with Endo III. After lysis slides were washed three times in an enzyme buffer (composed of 40 mM HEPES-KOH, 0.1 KCl, 0.5 mM EDTA, 0.2 mg/mL bovine serum albumin, pH 8.0) and drained, and the agarose was covered with 25 µL of either enzyme buffer or enzyme at 1 µg/mL in buffer, sealed with a cover glass and incubated for 30 min at 37°C. Further steps were described above. To determine the net value of DNA damage recognized by the enzyme, the DNA damage observed in the absence of the enzyme was subtracted from that measured in the presence of it.

HeLa cells [3] = assay: Alkaline comet assay, basal endogenous DNA damage; details: 1 h, mean ± S.E.M.
Caco-2 cells [4] = assay: Alkaline comet assay, basal endogenous DNA damage; details: Caco-2, 50 µM, 1 h, mean ± S.E.M.
LLC-PK1 cells = assay: Alkaline comet assay, basal endogenous DNA damage; details: LLC-PK1, 50 µM, 1 h, mean ± S.E.M.
Caco-2 cells [5] = details: human, 1 h, 50 µM

Structure (SMILES) | Mean DNA (%) in Comet Tail (±S.E.M.) of HeLa Cells, DSBs (HeLa cells [1]) | Mean DNA (%) in Comet Tail (±S.E.M.) of HeLa Cells, Endo III (HeLa cells [2]) | DNA damage, percentage of DNA in the comet tail (HeLa cells [3]; 1 µM) | DNA damage, percentage of DNA in the comet tail (Caco-2 cells [4]) | DNA damage, percentage of DNA in the comet tail (LLC-PK1 cells) | DNA damage, percentage of DNA in the comet tail (Caco-2 cells [5]) | DNA damage, percentage of DNA in the comet tail (HeLa cells [3]; 50 µM)
COc1ccc(C2C/C(=N\NC(=O)c3ccccc3)c3c([O][Cu][O]C(C)=O)cc(O)cc3O2)cc1O (stereo not drawn) [CuHHSB, (E)-acetoxy((4-(2-benzoylhydrazono)-7-hydroxy-2-(3-hydroxy-4-methoxyphenyl)chroman-5-yl)oxy)copper] | 14.4 ± 0.7 ^a,b % | 8.3 ± 2.7 ^a % | – | – | – | – | –
COc1ccc(C2C/C(=N\NC(=O)c3ccncc3)c3c([O][Cu][O]C(C)=O)cc(O)cc3O2)cc1O (stereo not drawn) [CuHIN, (E)-acetoxy((7-hydroxy-2-(3-hydroxy-4-methoxyphenyl)-4-(2-isonicotinoylhydrazono)chroman-5-yl)oxy)copper] | 7.7 ± 3.6 ^a % | 12.2 ± 4.2 ^a % | – | – | – | – | –
COc1ccc(C2C/C(=N\NC(N)=S)c3c([O][Cu][O]C(C)=O)cc(O)cc3O2)cc1O (stereo not drawn) [CuHTSC, (E)-acetoxy((4-(2-carbamothioylhydrazono)-7-hydroxy-2-(3-hydroxy-4-methoxyphenyl)chroman-5-yl)oxy)copper] | 6.4 ± 2.3 ^a,c % | 11.6 ± 1.9 ^a % | – | – | – | – | –
COc1ccc(C2CC(=NNC(=O)c3ccccc3)c3c(O)cc(O)cc3O2)cc1O (stereo not drawn) [HHSB, N-[2,3-dihydro-5,7-dihydroxy-2-(3-hydroxy-4-methoxyphenyl)chromen-4-ylidene]benzhydrazide] | – | 7.5 ± 3.9 ^a % | 28.8% ± 4.1% | 34.0% ± 4.6% | 26.3% ± 4.8% | – | –
COc1ccc(C2CC(=NNC(=O)c3ccncc3)c3c(O)cc(O)cc3O2)cc1O (stereo not drawn) [HIN, N-[2,3-dihydro-5,7-dihydroxy-2-(3-hydroxy-4-methoxyphenyl)chromen-4-ylidene]isonicotinohydrazide] | 19.5 ± 0.7 ^a % | 5.3 ± 3.5 ^a % | 28.9% ± 3.5% | 23.1% ± 3.4% | – | – | –
COc1ccc(C2CC(=NNC(N)=S)c3c(O)cc(O)cc3O2)cc1O (stereo not drawn) [HTSC, N-[2,3-dihydro-5,7-dihydroxy-2-(3-hydroxy-4-methoxyphenyl)chromen-4-ylidene]thiosemicarbazide] | 13.5 ± 0.7 ^a,c % | 10.2 ± 2.0 ^a % | – | – | – | 32.8% ± 4.4% | –
N.N.[Cl][Pt][Cl] [cisplatin, reference compound] | 30.2 ± 3.4% | 26.5 ± 3.9% | – | – | 73.1% ± 3.3% | – | –
OO [hydrogen peroxide, reference compound] | – | 26.2% ± 4.6% | – | 42.0% ± 3.6% | 54.1% ± 0.2% | – | 50.3% ± 0.6%
